Laboratory results taken from patent publication US20140121216A1, “INDOLEAMINE DERIVATIVES FOR THE TREATMENT OF CENTRAL NERVOUS SYSTEM DISEASES” (Adamed Sp. z o.o., priority 2011, published 2014).
pKi: −log10 of the molar value.

Tests used:
[1] = biological target: T1, D3 (h), human recombinant (CHO cells) (Homo sapiens, UniProt P35462); test: Cellular functional assay D3 (h) antagonism; format: cell-based; details: compound 1×10^−6 M; stimulus dopamine 10 nM
T1 construct: expressed in transfected cells; host or cells: CHO cells
Protocol: (§1) The results are expressed as a percent of control specific agonist response ((measured specific response/control specific agonist response)×100) obtained in the presence of tested compound.
(§2) The EC50 values (concentration producing a half-maximal specific response) and IC50 values (concentration causing a half-maximal inhibition of the control specific agonist response) were determined by non-linear regression analysis of the concentration-response curves generated with mean replicate values using Hill equation curve fitting (Y=D+[(A−D)/(1+(C/C50)nH)], where Y=specific response, D=minimum specific response, A=maximum specific response, C=compound concentration, and C50=EC50 or IC50, and nH=slope factor).
(§3) For the antagonists, the apparent dissociation constants (Kb) were calculated using the modified Cheng Prusoff equation (Kb=IC50/(1+(A/EC50A)), where A=concentration of reference agonist in the assay, and EC50A=EC50 value of the reference agonist).

[2] = biological target: T2, 5-HT6 (h), human recombinant (CHO cells) (Homo sapiens, UniProt P50406); test: Cellular functional assay 5-HT6 (h) antagonism; format: cell-based; details: compound 1×10^−6 M, stimulus serotonin 100 nM, read-out: 5-HT6-antag [%]
T2 construct: expressed in transfected cells; host or cells: CHO cells
Protocol: as §1, §2, §3

[3] = biological target: T3, 5-HT1A receptor (rat hippocampus) (Rattus norvegicus, UniProt P19327); test: Binding assay, 5-HT1A receptor ([3H]8-OH-DPAT); details: read-out: Inhibition constant Ki 5-HT1A
T3 construct: hippocampus; from tissue; host or cells: rat hippocampus
T3 sequence (P19327 1-422): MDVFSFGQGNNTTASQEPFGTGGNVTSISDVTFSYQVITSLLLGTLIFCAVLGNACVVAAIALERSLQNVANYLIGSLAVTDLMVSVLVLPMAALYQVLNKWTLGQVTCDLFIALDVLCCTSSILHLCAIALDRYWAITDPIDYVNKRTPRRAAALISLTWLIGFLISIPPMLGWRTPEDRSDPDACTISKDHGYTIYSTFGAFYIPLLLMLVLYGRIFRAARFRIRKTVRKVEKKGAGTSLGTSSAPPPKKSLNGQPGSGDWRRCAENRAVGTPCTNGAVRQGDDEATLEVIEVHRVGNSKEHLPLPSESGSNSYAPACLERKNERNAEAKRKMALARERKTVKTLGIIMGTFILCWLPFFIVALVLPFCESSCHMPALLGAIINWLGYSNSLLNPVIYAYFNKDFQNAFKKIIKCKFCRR
Protocol: (§4) Moreover, ability of the compounds of the invention to block potassium channel hERG was tested.
(§5) The specific ligand binding to the receptors is defined as the difference between the total binding and the non-specific binding determined in the presence of an excess of unlabelled ligand.
(§6) The inhibition constants (Ki) were calculated using the Cheng Prusoff equation (Ki=IC50/(1+(L/KD)), where L=concentration of radioligand in the assay, and KD=affinity of the radioligand for the receptor). A Scatchard plot is used to determine the Kd. The IC50 values (concentration causing a half-maximal inhibition of control specific binding) and Hill coefficients (nH) were determined by non-linear regression analysis of the competition curves generated with mean replicate values using Hill equation curve fitting (Y=D+[(A−D)/(1+(C/C50)^nH)], where Y=specific binding, D=minimum specific binding, A=maximum specific binding, C=compound concentration, C50=IC50, and nH=slope factor).

[4] = biological target: T4, 5-HT2C receptor, human recombinant (HEK-293 cells) (Homo sapiens, UniProt P28335); test: Binding assay, 5-HT2C receptor ([3H]mesulergine); details: for 5-HT2C [%] binding assay result: compound 1×10^−6 M
T4 construct: expressed in transfected cells; host or cells: HEK-293 cells
T4 sequence (P28335 33-458): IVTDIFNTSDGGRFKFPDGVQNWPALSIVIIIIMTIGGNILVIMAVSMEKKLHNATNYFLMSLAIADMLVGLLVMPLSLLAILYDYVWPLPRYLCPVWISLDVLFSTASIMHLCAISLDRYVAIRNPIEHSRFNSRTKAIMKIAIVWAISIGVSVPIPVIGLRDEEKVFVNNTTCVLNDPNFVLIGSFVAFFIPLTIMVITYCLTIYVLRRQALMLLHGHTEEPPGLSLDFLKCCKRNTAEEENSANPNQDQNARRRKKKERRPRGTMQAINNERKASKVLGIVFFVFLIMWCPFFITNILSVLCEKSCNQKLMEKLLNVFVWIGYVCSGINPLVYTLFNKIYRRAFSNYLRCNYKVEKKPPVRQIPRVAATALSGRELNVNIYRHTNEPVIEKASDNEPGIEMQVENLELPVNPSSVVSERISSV
Protocol: as §4, §5, §6

[5] = biological target: T5, D2S (h), human recombinant (HEK-293 cells) (Homo sapiens, UniProt P14416); test: Cellular functional assay D2S (h) antagonism; format: cell-based; details: HEK293; compound 1×10^−6 M; stimulus dopamine 30 nM; read-out: D2-antag [%]
T5 construct: expressed in transfected cells; host or cells: HEK-293 cells
Protocol: as §1, §2, §3

[6] = biological target: 5-HT2A receptor, human recombinant (Homo sapiens, UniProt P28223); test: Binding assay, 5-HT2A receptor ([3H]ketanserin); design: purchased PerkinElmer; details: read-out: Inhibition constant Ki 5-HT2A
Protocol: as §4, §5, §6

[7] = test system: σ receptors (rat cerebral cortex); test: Binding assay, σ receptors ([3H]DTG); details: compound 1×10^−6 M
Protocol: as §4, §5
as §6, with “factor). This analysis was performed using a software developed at Cerep (Hill software) and validated by comparison with data generated by the commercial software SigmaPlot® 4.0 for Windows® (©1997 by SPSS Inc.).” for “factor).”
(§7) Experimental conditions for tests are given in Table 14, and results of tests for representative compounds are given in Table 15a and 15b.

[8] = biological target: T6, H1 histaminergic receptors, human recombinant (HEK-293 cells) (Homo sapiens, UniProt P35367); test: Binding assay, H1 histaminergic receptor ([3H]pyrilamine); details: for H1 [%] affinity test result: compound 1×10^−6 M; for pKi: read-out: Inhibition constant Ki H1
T6 construct: expressed in transfected cells; host or cells: HEK-293 cells
Protocol: as §4, §5
as §6, with “factor). This analysis was performed using a software developed at Cerep (Hill software) and validated by comparison with data generated by the commercial software SigmaPlot® 4.0 for Windows® (©1997 by SPSS Inc.).” for “factor).”
as §7

[9] = biological target: T7, 5-HT6 receptor, human recombinant (Homo sapiens, UniProt P50406); test: Binding assay, 5-HT6 receptor ([3H]LSD); details: read-out: Inhibition constant Ki 5-HT6
T7 construct: purchased PerkinElmer
Protocol: as §4, §5, §6

T6 sequence (P35367 whole entry): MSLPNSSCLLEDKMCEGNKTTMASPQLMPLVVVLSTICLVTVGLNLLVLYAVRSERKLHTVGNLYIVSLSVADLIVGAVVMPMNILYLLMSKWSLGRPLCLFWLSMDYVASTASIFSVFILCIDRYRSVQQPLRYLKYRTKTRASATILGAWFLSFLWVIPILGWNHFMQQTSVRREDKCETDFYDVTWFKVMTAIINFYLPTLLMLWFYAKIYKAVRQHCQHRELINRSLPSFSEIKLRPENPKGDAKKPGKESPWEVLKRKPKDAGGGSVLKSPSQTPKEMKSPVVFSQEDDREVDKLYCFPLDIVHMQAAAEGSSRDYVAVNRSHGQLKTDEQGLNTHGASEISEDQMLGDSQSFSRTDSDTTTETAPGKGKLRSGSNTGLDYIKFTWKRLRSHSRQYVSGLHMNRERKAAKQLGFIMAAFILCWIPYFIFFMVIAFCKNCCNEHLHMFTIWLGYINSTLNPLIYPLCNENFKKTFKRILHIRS
T5 sequence (P14416 1-414 isoform P14416-2): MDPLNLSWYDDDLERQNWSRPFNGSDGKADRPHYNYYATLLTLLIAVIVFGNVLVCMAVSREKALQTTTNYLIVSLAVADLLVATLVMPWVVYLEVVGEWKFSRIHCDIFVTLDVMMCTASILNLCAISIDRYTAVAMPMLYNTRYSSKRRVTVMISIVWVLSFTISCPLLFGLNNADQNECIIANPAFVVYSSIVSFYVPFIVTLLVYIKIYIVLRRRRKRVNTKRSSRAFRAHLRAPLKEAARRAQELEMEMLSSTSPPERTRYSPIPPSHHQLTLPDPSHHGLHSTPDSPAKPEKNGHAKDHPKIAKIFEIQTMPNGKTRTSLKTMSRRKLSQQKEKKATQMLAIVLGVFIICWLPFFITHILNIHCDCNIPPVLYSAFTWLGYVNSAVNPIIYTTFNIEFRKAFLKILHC
5-HT2A receptor, human recombinant, sequence (P28223 whole entry): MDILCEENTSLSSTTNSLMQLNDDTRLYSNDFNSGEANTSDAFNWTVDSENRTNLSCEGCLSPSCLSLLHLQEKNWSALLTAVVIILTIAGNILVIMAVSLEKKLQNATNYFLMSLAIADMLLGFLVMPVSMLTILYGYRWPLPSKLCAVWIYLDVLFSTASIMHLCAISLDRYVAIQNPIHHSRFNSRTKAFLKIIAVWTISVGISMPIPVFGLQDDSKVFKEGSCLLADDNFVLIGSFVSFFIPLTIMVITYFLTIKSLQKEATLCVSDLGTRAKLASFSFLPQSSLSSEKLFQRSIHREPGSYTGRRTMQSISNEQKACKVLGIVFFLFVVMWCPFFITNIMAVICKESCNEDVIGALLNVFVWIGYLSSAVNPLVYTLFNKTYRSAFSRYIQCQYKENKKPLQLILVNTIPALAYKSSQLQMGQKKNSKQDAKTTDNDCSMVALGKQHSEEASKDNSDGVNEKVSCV
T1 sequence (P35462 whole entry): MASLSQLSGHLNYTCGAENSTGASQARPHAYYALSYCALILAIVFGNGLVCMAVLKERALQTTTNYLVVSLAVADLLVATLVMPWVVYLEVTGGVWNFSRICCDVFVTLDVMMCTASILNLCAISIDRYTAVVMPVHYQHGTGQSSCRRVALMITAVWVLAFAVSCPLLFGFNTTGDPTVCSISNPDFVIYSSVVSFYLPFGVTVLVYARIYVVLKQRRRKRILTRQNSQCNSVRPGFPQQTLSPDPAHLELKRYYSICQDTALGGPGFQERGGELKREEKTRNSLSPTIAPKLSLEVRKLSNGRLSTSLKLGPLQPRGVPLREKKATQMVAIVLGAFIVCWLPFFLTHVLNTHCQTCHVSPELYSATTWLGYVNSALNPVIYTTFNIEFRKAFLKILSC
T7 sequence (P50406 whole entry): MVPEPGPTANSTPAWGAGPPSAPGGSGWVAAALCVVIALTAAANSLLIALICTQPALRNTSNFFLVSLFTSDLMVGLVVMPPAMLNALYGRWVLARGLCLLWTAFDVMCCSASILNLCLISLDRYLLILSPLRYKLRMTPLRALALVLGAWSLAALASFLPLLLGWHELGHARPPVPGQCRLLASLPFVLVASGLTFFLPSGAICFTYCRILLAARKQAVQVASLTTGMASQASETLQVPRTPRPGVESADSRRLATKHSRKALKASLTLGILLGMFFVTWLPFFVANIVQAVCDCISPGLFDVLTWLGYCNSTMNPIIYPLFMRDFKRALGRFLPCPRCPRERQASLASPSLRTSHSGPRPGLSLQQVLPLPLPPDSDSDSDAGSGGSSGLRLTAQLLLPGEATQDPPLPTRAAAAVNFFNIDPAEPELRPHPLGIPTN
T2 sequence (P50406 whole entry): as above

## O=C1CCc2ccc(OCCCCN3CCN(c4cccc5c4ccn5Cc4cccc(Cl)c4)CC3)cc2N1 [Compound 67, 7-[4-[4-[1-[(3-Chlorophenyl)methyl]indol-4-yl]piperazin-1-yl]butoxy]-3,4-dihydro-1H-quinolin-2-one]
[1]
  D3-antag [%]: 74%
[2]
  inhibition at 1 µM: 53%
[3]
  pKi: 8.15
[4]
  5-HT2C [%] binding assay result: 76%
[5]
  inhibition at 1 µM: 103%

## O=C1CCc2ccc(OCCCN3CCN(c4cccc5c4ccn5S(=O)(=O)c4ccccc4)CC3)cc2N1 [Compound 23, 7-[3-[4-[1-(Benzensulphonyl)indol-4-yl]piperazin-1-yl]propoxy]-3,4-dihydro-1H-quinolin-2-one]
[1]
  D3-antag [%]: −19%
[6]
  pKi: 6.77
[7]
  σ [%] affinity test result: 13%
[2]
  inhibition at 1 µM: 42%
[8]
  H1 [%] affinity test result: 72%
  pKi: 6.82
[3]
  pKi: 8.21
[4]
  5-HT2C [%] binding assay result: 0%
[9]
  pKi: 8.68
[5]
  inhibition at 1 µM: 55%

## O=C1CCc2ccc(OCCCCN3CCN(c4cccc5c4ccn5S(=O)(=O)c4ccccc4)CC3)cc2N1 [Compound 24, 7-(4-(4-(1-(Phenylsulphonyl)-1H-indol-4-yl)piperazin-1-yl)butoxy)-3,4-dihydroquinolin-2(1H)-one]
[1]
  D3-antag [%]: 63.2%
[6]
  pKi: 8.49
[7]
  σ [%] affinity test result: 57%
[2]
  inhibition at 1 µM: 88.7%
[8]
  H1 [%] affinity test result: 78%
  pKi: 7.00
[3]
  pKi: 8.92
[4]
  5-HT2C [%] binding assay result: 48%
[4]; read-out: Inhibition constant Ki 5-HT2C
  pKi: 6.21
[9]
  pKi: 9.46
[5]
  inhibition at 1 µM: 93%

## O=C1CCc2ccc(OCCCCN3CCN(c4cccc5c4ccn5Cc4cccc(F)c4)CC3)cc2N1 [Compound 63, 7-[4-[4-[1-[(3-Fluorophenyl)methyl]indol-4-yl]piperazin-1-yl]butoxy]-3,4-dihydro-1H-quinolin-2-one]
[1]
  D3-antag [%]: 72%
[2]
  inhibition at 1 µM: 61%
[8]
  H1 [%] affinity test result: 81%
[4]
  5-HT2C [%] binding assay result: 89%
[5]
  inhibition at 1 µM: 108%

## O=C1CCc2ccc(OCCCN3CCN(c4cccc5c4ccn5Cc4ccccc4)CC3)cc2N1 [Compound 4, 7-[3-[4-(1-Benzylindol-4-yl)piperazin-1-yl]propoxy]-3,4-dihydro-1H-quinolin-2-one]
[1]
  D3-antag [%]: 29%
[7]
  σ [%] affinity test result: 45%
[2]
  inhibition at 1 µM: 73%
[8]
  H1 [%] affinity test result: 73%
[4]
  5-HT2C [%] binding assay result: 73%
[5]
  inhibition at 1 µM: 89%

## O=C1CCc2ccc(OCCCCN3CCN(c4cccc5c4ccn5Cc4ccccc4)CC3)cc2N1 [Compound 5, 7-(4-(4-(1-Benzyl-1H-indol-4-yl)piperazin-1-yl)butoxy)-3,4-dihydroquinolin-2(1H)-one]
[1]
  D3-antag [%]: 43%
[7]
  σ [%] affinity test result: 52%
[2]
  inhibition at 1 µM: 42%
[8]
  H1 [%] affinity test result: 88%
[4]
  5-HT2C [%] binding assay result: 86%
[5]
  inhibition at 1 µM: 99%

## NC(=O)c1ccccc1OCCCN1CCN(c2cccc3c2ccn3S(=O)(=O)c2ccccc2)CC1 [Compound 72, 2-[3-[4-[1-(Benzenesulfonyl)indol-4-yl]piperazin-1-yl]propoxy]-benzamide]
[1]
  D3-antag [%]: 74%
[6]
  pKi: 7.74
[2]
  inhibition at 1 µM: 103%
[8]
  H1 [%] affinity test result: 80%
[3]
  pKi: 8.41
[4]
  5-HT2C [%] binding assay result: 35%
[9]
  pKi: 9.51
[5]
  inhibition at 1 µM: 95%
